Experimental data: ChEMBL document CHEMBL1150587, “Evaluation of the potential cancer chemotherapeutic efficacy of natural product isolates employing in vivo hollow fiber tests” (J Nat Prod, 2002)
Activity calls are given as the source filed them. No cut-off for these calls is given here.

Columns and labels:
MCF7 [1] = assay: Growth inhibition of human MCF7 cells implanted subcutaneously to NCr nu/nu mouse at 7.13 to 28.5 umol/kg, ip administered from day 3 to 6 after implantation measured on day 7 by MTT-based hollow-fiber test; type: functional
P388 [2] = assay: Growth inhibition of mouse P388 cells implanted subcutaneously to NCr nu/nu mouse at 7.13 to 28.5 umol/kg, ip administered from day 3 to 6 after implantation measured on day 7 by MTT-based hollow-fiber test; type: functional
Mus musculus [3] = assay: Toxicity in tumor-implanted NCr nu/nu mouse at 57.5 umol/kg, ip administered from day 3 to 6 after implantation measured on day 7 by hollow-fiber test; type: organism-based; conditions: in vivo
KB [4] = assay: Growth inhibition of human KB cells implanted subcutaneously to NCr nu/nu mouse assessed as tumor size at 7.13 to 72.6 umol/kg, ip administered on day 10, 13, 16, 20 of implantation; type: functional, organism-based
Mus musculus [5] = assay: Toxicity in NCr nu/nu mouse subcutaneously implanted with human KB cells assessed as mortality at 14.3 umol/kg, ip administered on day 10, 13, 16, 20 of implantation; type: organism-based; conditions: in vivo
SK-MEL-2 [6] = assay: Cytotoxicity against human SK-MEL-2 cells after 72 hrs by SRB assay; type: functional, cell-based; conditions: SK-MEL-2, 72 h
Mus musculus [7] = assay: Toxicity in NCr nu/nu mouse subcutaneously implanted with human KB cells assessed as mortality at 28.5 umol/kg, ip administered on day 10, 13, 16, 20 of implantation; type: organism-based; conditions: in vivo
LNCaP [8] = assay: Growth inhibition of human LNCAP cells implanted intraperitoneally to NCr nu/nu mouse at 7.13 to 28.5 umol/kg, ip administered from day 3 to 6 after implantation measured on day 7 by MTT-based hollow-fiber test; type: functional
[9] = Cytotoxicity against human BC1 cells after 72 hrs by SRB assay; conditions: BC1, 72 h
[10] = Cytotoxicity against human KBV1 cells after 72 hrs by SRB assay; type: functional, cell-based; conditions: KB-V1, 72 h
MCF7 [11] = assay: Growth inhibition of human MCF7 cells implanted intraperitoneally to NCr nu/nu mouse at 7.13 to 28.5 umol/kg, ip administered from day 3 to 6 after implantation measured on day 7 by MTT-based hollow-fiber test; type: functional
LNCaP [12] = assay: Growth inhibition of human LNCAP cells implanted subcutaneously to NCr nu/nu mouse at 7.13 to 28.5 umol/kg, ip administered from day 3 to 6 after implantation measured on day 7 by MTT-based hollow-fiber test; type: functional
SK-MEL-2 [13] = assay: Growth inhibition of human SK-MEL-2 cells implanted intraperitoneally to NCr nu/nu mouse at 7.13 to 28.5 umol/kg, ip administered from day 3 to 6 after implantation measured on day 7 by MTT-based hollow-fiber test; type: functional
KB [14] = assay: Growth inhibition of human KB cells implanted intraperitoneally to NCr nu/nu mouse at 7.13 to 28.5 umol/kg, ip administered from day 3 to 6 after implantation measured on day 7 by MTT-based hollow-fiber test; type: functional
Col2 = assay: Cytotoxicity against human Col2 cells after 72 hrs by SRB assay; type: functional, cell-based; conditions: Col2, 72 h
Mus musculus [15] = assay: Toxicity in NCr nu/nu mouse subcutaneously implanted with human KB cells assessed as change in body weight at 7.13 umol/kg, ip administered on day 10, 13, 16, 20 of implantation; type: organism-based; conditions: in vivo
Mus musculus [16] = assay: Toxicity in NCr nu/nu mouse subcutaneously implanted with human KB cells assessed as change in body weight at 14.3 umol/kg, ip administered on day 10, 13, 16, 20 of implantation; type: organism-based; conditions: in vivo
LNCaP [17] = assay: Growth inhibition of ip dosed intraperitoneally implanted human LNCAP cells to NCr nu/nu mouse administered from day 3 to 6 after implantation measured on day 7 by MTT-based hollow-fiber test; type: functional, organism-based
Mus musculus [18] = assay: Toxicity in NCr nu/nu mouse subcutaneously implanted with human KB cells assessed as mortality at 7.13 umol/kg, ip administered on day 10, 13, 16, 20 of implantation; type: organism-based; conditions: in vivo
KB [19] = assay: Cytotoxicity against human KB cells after 72 hrs by SRB assay; type: functional, cell-based
Lu1 [20] = assay: Growth inhibition of ip dosed intraperitoneally implanted human Lu1 cells to NCr nu/nu mouse administered from day 3 to 6 after implantation measured on day 7 by MTT-based hollow-fiber test; type: functional, organism-based
Mus musculus [21] = assay: Toxicity in NCr nu/nu mouse subcutaneously implanted with human KB cells assessed as change in body weight at 28.5 umol/kg, ip administered on day 10, 13, 16, 20 of implantation; type: organism-based; conditions: in vivo
Lu1 [22] = assay: Growth inhibition of human Lu1 cells implanted subcutaneously to NCr nu/nu mouse at 7.13 to 28.5 umol/kg, ip administered from day 3 to 6 after implantation measured on day 7 by MTT-based hollow-fiber test; type: functional
Mus musculus [23] = assay: Toxicity in tumor-implanted NCr nu/nu mouse at 144 umol/kg, ip administered from day 3 to 6 after implantation measured on day 7 by hollow-fiber test; type: organism-based; conditions: in vivo
SW626 [24] = assay: Cytotoxicity against human SW626 cells after 72 hrs by SRB assay; type: functional, cell-based; conditions: SW626, 72 h
Lu1 [25] = assay: Growth inhibition of human Lu1 cells implanted intraperitoneally to NCr nu/nu mouse at 7.13 to 28.5 umol/kg, ip administered from day 3 to 6 after implantation measured on day 7 by MTT-based hollow-fiber test; type: functional
Lu1 [26] = assay: Cytotoxicity against human Lu1 cells after 72 hrs by SRB assay; type: functional, cell-based; conditions: Lu1, 72 h
SK-MEL-2 [27] = assay: Growth inhibition of human SK-MEL-2 cells implanted subcutaneously to NCr nu/nu mouse at 7.13 to 28.5 umol/kg, ip administered from day 3 to 6 after implantation measured on day 7 by MTT-based hollow-fiber test; type: functional
Mus musculus [28] = assay: Toxicity in tumor cell implanted NCr nu/nu mouse assessed as body weight change at 7.13 umol/kg, ip administered from day 3 to 6 after implantation measured on day 7; type: organism-based; conditions: in vivo
Mus musculus [29] = assay: Toxicity in tumor cell implanted NCr nu/nu mouse assessed as body weight change at 14.3 umol/kg, ip administered from day 3 to 6 after implantation measured on day 7; type: organism-based; conditions: in vivo
P388 [30] = assay: Cytotoxicity against mouse P388 cells after 72 hrs by SRB assay; type: functional, cell-based; conditions: P388, 72 h
MCF7 [31] = assay: Cytotoxicity against human MCF7 cells after 72 hrs by SRB assay; conditions: MCF7, 72 h
SW626 [32] = assay: Growth inhibition of human SW626 cells implanted subcutaneously to NCr nu/nu mouse at 7.13 to 28.5 umol/kg, ip administered from day 3 to 6 after implantation measured on day 7 by MTT-based hollow-fiber test; type: functional
LNCaP [33] = assay: Cytotoxicity against human LNCAP cells after 72 hrs by SRB assay; type: functional, cell-based
Mus musculus [34] = assay: Toxicity in tumor cell implanted NCr nu/nu mouse assessed as body weight change at 28.5 umol/kg, ip administered from day 3 to 6 after implantation measured on day 7; type: organism-based; conditions: in vivo
SW626 [35] = assay: Growth inhibition of human SW626 cells implanted intraperitoneally to NCr nu/nu mouse at 7.13 to 28.5 umol/kg, ip administered from day 3 to 6 after implantation measured on day 7 by MTT-based hollow-fiber test; type: functional
P388 [36] = assay: Growth inhibition of mouse P388 cells implanted intraperitoneally to NCr nu/nu mouse at 7.13 to 28.5 umol/kg, ip administered from day 3 to 6 after implantation measured on day 7 by MTT-based hollow-fiber test; type: functional
KB [37] = assay: Growth inhibition of human KB cells implanted subcutaneously to NCr nu/nu mouse at 7.13 to 28.5 umol/kg, ip administered from day 3 to 6 after implantation measured on day 7 by MTT-based hollow-fiber test; type: functional

With `C[C@@H]1CC[C@@]2(OC1)O[C@H]1C[C@H]3[C@@H]4CC=C5C[C@@H](O[C@@H]6O[C@H](CO)[C@@H](O[C@@H]7O[C@@H](C)[C@H](O)[C@@H](O)[C@H]7O)[C@H](O)[C@H]6O[C@@H]6O[C@@H](C)[C@H](O)[C@@H](O)[C@H]6O)CC[C@]5(C)[C@H]4CC[C@]3(C)[C@H]1[C@@H]2C` [DIOSCIN] the “inhibition (INH)” value (MCF7 [1]) was 7.3%, the “inhibition (INH)” value (P388 [2]) was 0% and the Activity (Mus musculus [3]) was “Toxic”. The Activity (KB [4]) was “inactive”, the Activity (Mus musculus [5]) was “Non-toxic” and the IC50 (SK-MEL-2 [6]) was 1.8 µM. The Activity (Mus musculus [7]) was “Non-toxic”, the “inhibition (INH)” value (LNCaP [8]) was 36.9% and the IC50 [9] was 3.8 µM. For the same molecule, the IC50 [10] was over 23 µM, the “inhibition (INH)” value (MCF7 [11]) was 0% and the “inhibition (INH)” value (LNCaP [12]) was 35.9%. For the same molecule, the “inhibition (INH)” value (SK-MEL-2 [13]) was 2.3%, the “inhibition (INH)” value (KB [14]) was 79% and the IC50 (Col2) was 2.8 µM. The Activity (Mus musculus [15]) was 7.1%, the Activity (Mus musculus [16]) was 8.4% and the Activity (LNCaP [17]) was “Dose-dependent effect”. The Activity (Mus musculus [18]) was “Non-toxic”, the IC50 (KB [19]) was 20.7 µM and the Activity (Lu1 [20]) was “Dose-dependent effect”. The Activity (Mus musculus [21]) was 8.6%, the “inhibition (INH)” value (Lu1 [22]) was 0% and the Activity (Mus musculus [23]) was “Toxic”. The IC50 (SW626 [24]) was 3.1 µM, the “inhibition (INH)” value (Lu1 [25]) was 24.6% and the IC50 (Lu1 [26]) was 1.2 µM. The “inhibition (INH)” value (SK-MEL-2 [27]) was 0%, the Activity (Mus musculus [28]) was 0.8 g and the Activity (Mus musculus [29]) was 0.45 g. The IC50 (P388 [30]) was 21.9 µM, the IC50 (MCF7 [31]) was 22.4 µM and the “inhibition (INH)” value (SW626 [32]) was 8.7%. The IC50 (LNCaP [33]) was 1.7 µM, the Activity (Mus musculus [34]) was -0.65 g and the “inhibition (INH)” value (SW626 [35]) was 4.1%. The “inhibition (INH)” value (P388 [36]) was 0% and the “inhibition (INH)” value (KB [37]) was 3.6%.
